This note sets out measurements from the NIST ThermoML archive (doi:10.1016/j.jct.2015.11.017).

This series is described as follows: mn = molality of the nth substance listed, in mol/kg. The conditions noted are these: 298.2 K, 101.3 kPa, Liquid, Alternating current cell with electrodes.

Numbers after ± are expanded uncertainties.

`CCCCCCCCCCCCOS(=O)(=O)[O-].[Na+]` [sodium dodecyl sulfate] + O: the electrical conductivity by setting is: (m1 = 0.01003) 0.0586 ± 0.001 S/m; (m1 = 0.01504) 0.0684 ± 0.001 S/m; (m1 = 0.02006) 0.0816 ± 0.001 S/m; (m1 = 0.02507) 0.097 ± 0.01 S/m; (m1 = 0.03009) 0.106 ± 0.01 S/m.
